Measured values taken from PubChem BioAssay (NCI).
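Where inhibition never reached the appropriate level, the endpoint shown equals the highest concentration tested. Otherwise, values were interpolated linearly from a five-concentration, 48-hour dose response in 96-well plates. TGI denotes the concentration required for complete inhibition of growth.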

Experiments:
Assay in all cases: NCI-60 cell line screen, 48 h
786-0 renal = tested on: 786-0 renal
A498 renal = tested on: A498 renal
A549 NSCLC = tested on: A549 NSCLC
ACHN renal = tested on: ACHN renal
CCRF-CEM leukemia = tested on: CCRF-CEM leukemia
COLO 205 colon = tested on: COLO 205 colon
DLD-1 colon = tested on: DLD-1 colon
DMS 114 small cell lung = tested on: DMS 114 small cell lung
EKVX NSCLC = tested on: EKVX NSCLC
HCC-2998 colon = tested on: HCC-2998 colon
HCT-116 colon = tested on: HCT-116 colon
HCT-15 colon = tested on: HCT-15 colon
HL-60(TB) leukemia = tested on: HL-60(TB) leukemia
HOP-18 NSCLC = tested on: HOP-18 NSCLC
HOP-62 NSCLC = tested on: HOP-62 NSCLC
HOP-92 NSCLC = tested on: HOP-92 NSCLC
HT29 colon = tested on: HT29 colon
K-562 leukemia = tested on: K-562 leukemia
KM12 colon = tested on: KM12 colon
KM20L2 colon = tested on: KM20L2 colon
LOX IMVI melanoma = tested on: LOX IMVI melanoma
LXFL 529 NSCLC = tested on: LXFL 529 NSCLC
M14 melanoma = tested on: M14 melanoma
M19-MEL melanoma = tested on: M19-MEL melanoma
MALME-3M melanoma = tested on: MALME-3M melanoma
MOLT-4 leukemia = tested on: MOLT-4 leukemia
NCI-H226 lung = tested on: NCI-H226 lung
NCI-H23 lung = tested on: NCI-H23 lung
NCI-H460 lung = tested on: NCI-H460 lung
NCI-H522 lung = tested on: NCI-H522 lung
OVCAR-3 ovarian = tested on: OVCAR-3 ovarian
OVCAR-4 ovarian = tested on: OVCAR-4 ovarian
OVCAR-5 ovarian = tested on: OVCAR-5 ovarian
OVCAR-8 ovarian = tested on: OVCAR-8 ovarian
RPMI-8226 leukemia = tested on: RPMI-8226 leukemia
RXF 393 renal = tested on: RXF 393 renal
RXF-631 renal = tested on: RXF-631 renal
SF-268 CNS = tested on: SF-268 CNS
SF-295 CNS = tested on: SF-295 CNS
SF-539 CNS = tested on: SF-539 CNS
SK-MEL-2 melanoma = tested on: SK-MEL-2 melanoma
SK-MEL-28 melanoma = tested on: SK-MEL-28 melanoma
SK-OV-3 ovarian = tested on: SK-OV-3 ovarian
SN12C renal = tested on: SN12C renal
SNB-19 CNS = tested on: SNB-19 CNS
SNB-75 CNS = tested on: SNB-75 CNS
SNB-78 CNS = tested on: SNB-78 CNS
SW-620 colon = tested on: SW-620 colon
TK-10 renal = tested on: TK-10 renal
U251 CNS = tested on: U251 CNS
UACC-257 melanoma = tested on: UACC-257 melanoma
UO-31 renal = tested on: UO-31 renal
XF 498 CNS = tested on: XF 498 CNS
CAKI-1 renal = tested on: CAKI-1 renal
DMS 273 small cell lung = tested on: DMS 273 small cell lung
IGROV1 ovarian = tested on: IGROV1 ovarian
SK-MEL-5 melanoma = tested on: SK-MEL-5 melanoma
UACC-62 melanoma = tested on: UACC-62 melanoma

## CCCCCCCCCCCCCCCCc1c(C(=O)OC)nc(NC#N)[nH]c1=O
786-0 renal
  TGI: > 25 µM
A498 renal
  TGI: > 25 µM
A549 NSCLC
  TGI: > 25 µM
ACHN renal
  TGI: > 25 µM
CCRF-CEM leukemia
  TGI: > 25 µM
COLO 205 colon
  TGI: > 25 µM
DLD-1 colon
  TGI: > 25 µM
DMS 114 small cell lung
  TGI: > 25 µM
EKVX NSCLC
  TGI: > 25 µM
HCC-2998 colon
  TGI: > 25 µM
HCT-116 colon
  TGI: > 25 µM
HCT-15 colon
  TGI: > 25 µM
HL-60(TB) leukemia
  TGI: > 25 µM
HOP-18 NSCLC
  TGI: > 25 µM
HOP-62 NSCLC
  TGI: > 25 µM
HOP-92 NSCLC
  TGI: > 25 µM
HT29 colon
  TGI: > 25 µM
K-562 leukemia
  TGI: > 25 µM
KM12 colon
  TGI: > 25 µM
KM20L2 colon
  TGI: > 25 µM
LOX IMVI melanoma
  TGI: > 25 µM
LXFL 529 NSCLC
  TGI: > 25 µM
M14 melanoma
  TGI: > 25 µM
M19-MEL melanoma
  TGI: > 25 µM
MALME-3M melanoma
  TGI: > 25 µM
MOLT-4 leukemia
  TGI: > 25 µM
NCI-H226 lung
  TGI: > 25 µM
NCI-H23 lung
  TGI: > 25 µM
NCI-H460 lung
  TGI: > 25 µM
NCI-H522 lung
  TGI: > 25 µM
OVCAR-3 ovarian
  TGI: > 25 µM
OVCAR-4 ovarian
  TGI: > 25 µM
OVCAR-5 ovarian
  TGI: > 25 µM
OVCAR-8 ovarian
  TGI: > 25 µM
RPMI-8226 leukemia
  TGI: > 25 µM
RXF 393 renal
  TGI: > 25 µM
RXF-631 renal
  TGI: > 25 µM
SF-268 CNS
  TGI: > 25 µM
SF-295 CNS
  TGI: > 25 µM
SF-539 CNS
  TGI: > 25 µM
SK-MEL-2 melanoma
  TGI: > 25 µM
SK-MEL-28 melanoma
  TGI: > 25 µM
SK-OV-3 ovarian
  TGI: > 25 µM
SN12C renal
  TGI: > 25 µM
SNB-19 CNS
  TGI: > 25 µM
SNB-75 CNS
  TGI: > 25 µM
SNB-78 CNS
  TGI: > 25 µM
SW-620 colon
  TGI: > 25 µM
TK-10 renal
  TGI: > 25 µM
U251 CNS
  TGI: > 25 µM
UACC-257 melanoma
  TGI: > 25 µM
UO-31 renal
  TGI: > 25 µM
XF 498 CNS
  TGI: > 25 µM

## CC(=O)NC(CCCNC(=O)N(C)N=O)C(=O)NCc1ccccc1 (centres undefined)
786-0 renal
  TGI: > 100 µM
A498 renal
  TGI: > 100 µM
A549 NSCLC
  TGI: > 100 µM
ACHN renal
  TGI: > 100 µM
CAKI-1 renal
  TGI: > 100 µM
CCRF-CEM leukemia
  TGI: > 100 µM
COLO 205 colon
  TGI: > 100 µM
DLD-1 colon
  TGI: > 100 µM
DMS 114 small cell lung
  TGI: > 100 µM
DMS 273 small cell lung
  TGI: > 100 µM
EKVX NSCLC
  TGI: > 100 µM
HCC-2998 colon
  TGI: > 100 µM
HCT-116 colon
  TGI: > 100 µM
HCT-15 colon
  TGI: > 100 µM
HOP-62 NSCLC
  TGI: > 100 µM
HOP-92 NSCLC
  TGI: > 100 µM
HT29 colon
  TGI: > 100 µM
IGROV1 ovarian
  TGI: > 100 µM
K-562 leukemia
  TGI: > 100 µM
KM12 colon
  TGI: > 100 µM
KM20L2 colon
  TGI: > 100 µM
LOX IMVI melanoma
  TGI: > 100 µM
LXFL 529 NSCLC
  TGI: > 100 µM
M14 melanoma
  TGI: > 100 µM
M19-MEL melanoma
  TGI: > 100 µM
MALME-3M melanoma
  TGI: > 100 µM
MOLT-4 leukemia
  TGI: > 100 µM
NCI-H226 lung
  TGI: > 100 µM
NCI-H23 lung
  TGI: > 100 µM
NCI-H460 lung
  TGI: > 100 µM
NCI-H522 lung
  TGI: > 100 µM
OVCAR-3 ovarian
  TGI: > 100 µM
OVCAR-4 ovarian
  TGI: > 100 µM
OVCAR-5 ovarian
  TGI: > 100 µM
OVCAR-8 ovarian
  TGI: > 100 µM
RPMI-8226 leukemia
  TGI: > 100 µM
RXF 393 renal
  TGI: > 100 µM
RXF-631 renal
  TGI: > 100 µM
SF-268 CNS
  TGI: > 100 µM
SF-295 CNS
  TGI: > 100 µM
SF-539 CNS
  TGI: > 100 µM
SK-MEL-2 melanoma
  TGI: > 100 µM
SK-MEL-28 melanoma
  TGI: > 100 µM
SK-MEL-5 melanoma
  TGI: > 100 µM
SK-OV-3 ovarian
  TGI: > 100 µM
SN12C renal
  TGI: > 100 µM
SNB-19 CNS
  TGI: > 100 µM
SNB-75 CNS
  TGI: > 100 µM
SNB-78 CNS
  TGI: > 100 µM
SW-620 colon
  TGI: > 100 µM
TK-10 renal
  TGI: > 100 µM
U251 CNS
  TGI: > 100 µM
UACC-257 melanoma
  TGI: > 100 µM
UACC-62 melanoma
  TGI: > 100 µM
UO-31 renal
  TGI: > 100 µM
XF 498 CNS
  TGI: > 100 µM
